Data as given in PubChem BioAssay (NCI).
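Five compound concentrations were applied to cells in 96-well plates for 48 hours; endpoints were derived by simple linear interpolation of the resulting dose-response curve. Abbreviation: GI50, concentration required for 50% inhibition of growth. The concentration for full growth arrest is given as TGI.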

Experiments:
Assay in all cases: DTP human tumour cell line panel, 48 h
786-0 renal = test system: 786-0 renal
CAKI-1 renal = test system: CAKI-1 renal
EKVX NSCLC = test system: EKVX NSCLC
IGROV1 ovarian = test system: IGROV1 ovarian
SF-268 CNS = test system: SF-268 CNS
SF-539 CNS = test system: SF-539 CNS
SK-MEL-5 melanoma = test system: SK-MEL-5 melanoma
SNB-75 CNS = test system: SNB-75 CNS
HOP-92 NSCLC = test system: HOP-92 NSCLC
MCF7 breast = test system: MCF7 breast

Row | SMILES | TGI (786-0 renal) | TGI (CAKI-1 renal) | TGI (EKVX NSCLC) | TGI (IGROV1 ovarian) | TGI (SF-268 CNS) | TGI (SF-539 CNS) | TGI (SK-MEL-5 melanoma) | TGI (SNB-75 CNS) | TGI (HOP-92 NSCLC) | GI50 (786-0 renal) | GI50 (CAKI-1 renal) | GI50 (EKVX NSCLC) | GI50 (HOP-92 NSCLC) | GI50 (MCF7 breast) | GI50 (SF-268 CNS) | GI50 (SF-539 CNS) | GI50 (SK-MEL-5 melanoma) | GI50 (SNB-75 CNS) | TGI (MCF7 breast) | GI50 (IGROV1 ovarian)
1 | O=C(Nc1c(-c2nc3ccccc3[nH]2)sc(=S)n1-c1ccccc1)c1ccccc1 | > 100 µM | > 100 µM | > 100 µM | > 100 µM | > 100 µM | > 100 µM | > 100 µM | 58.4 µM |  |  |  |  |  |  |  |  |  |  |  | 
2 | Cn1c(CCC#N)nc2ccc(Br)cc2c1=O | > 100 µM | > 100 µM | > 100 µM | > 100 µM | > 100 µM | > 100 µM | > 100 µM | > 100 µM | > 100 µM |  |  |  |  |  |  |  |  |  |  | 
3 | COC(OC)c1cccc2c1C1(O)CCC3(CC21)OCCCCO3 (stereo unspecified) | > 100 µM | > 100 µM |  | > 100 µM | > 100 µM | > 100 µM | > 100 µM | > 100 µM |  |  |  |  |  |  |  |  |  |  |  | 
4 | Cc1ccccc1C(=O)Oc1ccc(Oc2ccccc2)cc1 | > 100 µM | > 100 µM | > 100 µM | > 100 µM | > 100 µM | > 100 µM | > 100 µM | > 100 µM |  |  |  |  |  |  |  |  |  |  |  | 
5 | Cc1ccc(C)c(NC(=O)c2cc(-c3ccc([N+](=O)[O-])cc3)nc(N)n2)c1 | > 100 µM | > 100 µM | > 100 µM | > 100 µM | > 100 µM | > 100 µM | > 100 µM | > 100 µM | > 100 µM |  |  |  |  |  |  |  |  |  |  | 
6 | Cc1ccc(NC(=O)/C(CC(=O)c2c[n+](=O)c3ccccc3n2O)=N\NC(=O)C[n+]2ccccc2)cc1 | > 100 µM | > 100 µM | > 100 µM | > 100 µM | > 100 µM | > 100 µM | > 100 µM | > 100 µM |  |  |  |  |  |  |  |  |  |  |  | 
7 | COc1cnc2c(c1)C(=O)c1c-2n(CCCn2ccnc2)c(=O)c2cc(Cl)ccc12 | 0.0823 µM | > 100 µM | > 100 µM |  | > 100 µM | 0.321 µM | 0.164 µM | 18.9 µM | 56.2 µM | 0.0262 µM | 0.0255 µM | 0.251 µM | 0.0726 µM | < 0.01 µM | 0.0343 µM | 0.0388 µM | 0.0387 µM | 0.219 µM |  | 
8 | O=C(O)/C(=C/c1ccccc1[N+](=O)[O-])c1ccccc1 | > 100 µM | > 100 µM | > 100 µM | > 100 µM | > 100 µM | > 100 µM | > 100 µM | > 100 µM |  |  |  |  |  |  |  |  |  |  |  | 
9 | CC(c1ccc(Br)cc1)C(C(=O)O)C(=O)O (stereo unspecified) | > 100 µM | > 100 µM | > 100 µM | > 100 µM | > 100 µM |  | > 100 µM | > 100 µM |  |  |  |  |  |  |  |  |  |  |  | 
10 | O=c1[nH]c(Br)nc2c(Br)c[nH]c12 | > 100 µM | > 100 µM | > 100 µM | > 100 µM | > 100 µM | > 100 µM | > 100 µM | > 100 µM | > 100 µM |  |  |  |  |  |  |  |  |  |  | 
11 | CC(C)C(=O)N[C@@H](C)C(=O)N(Cc1ccc2ccccc2c1)N=O | > 100 µM | > 100 µM | > 100 µM | > 100 µM | > 100 µM | > 100 µM | > 100 µM | > 100 µM |  |  |  |  |  |  |  |  |  |  |  | 
12 | CCCCCCCCCCCC(=O)OCC1OC(n2cc(F)c(=O)[nH]c2=O)C(N)C(OC(=O)CCCCCCCCCCC)C1O (stereo unspecified) | > 100 µM | > 100 µM | > 100 µM |  | > 100 µM | > 100 µM | 30.5 µM | > 100 µM | 98.8 µM |  |  |  |  |  |  |  |  |  |  | 
13 | CC(=O)OC12c3ccccc3C1CCCCCC21OCCCO1 (stereo unspecified) | > 100 µM | > 100 µM |  | > 100 µM | > 100 µM | > 100 µM | > 100 µM | > 100 µM |  |  |  |  |  |  |  |  |  |  |  | 
14 | O=C(COc1cccc(/C=C2\COc3ccccc3C2=O)c1)Nc1nccs1 | 4.14 µM | 3.56 µM | 17.1 µM |  | 3.69 µM | 31.2 µM | 19.5 µM | 24.6 µM |  | 2.05 µM | 1.61 µM | 4.11 µM |  | 1.24 µM | 1.95 µM | 14.7 µM | 5.27 µM | 12.2 µM | 5.69 µM | 
15 | CCCN(CCC)c1ccc(CO)c(C)c1 | > 100 µM | > 100 µM | > 100 µM | > 100 µM | > 100 µM | > 100 µM | 62.3 µM | > 100 µM |  | > 100 µM | 38.8 µM | 28.4 µM |  | > 100 µM | 63.7 µM | > 100 µM | 18.9 µM | 68.2 µM | > 100 µM | 57 µM
16 | O=Cc1ccc(-c2ccc(-c3ccc(C=O)s3)o2)s1 | > 100 µM | 1.31 µM | > 90 µM | 35.8 µM | > 100 µM | > 100 µM | > 100 µM | 78.8 µM | > 100 µM |  |  |  |  |  |  |  |  |  |  | 
17 | C=CC1CC12C(=O)C1OC2(C)C2C(=O)c3c(ccc4c3ccc3ccccc34)C(=O)C12 (stereo unspecified) | > 100 µM | 58.6 µM | > 100 µM |  | > 100 µM | > 100 µM |  | > 100 µM | > 100 µM | 38.8 µM | 19.1 µM | 78.6 µM | 34.4 µM | 34.2 µM | 36.2 µM | 47.2 µM |  | > 100 µM | > 100 µM | 
18 | N=C(c1ccccc1)N(O)C1CCCCC1 | > 100 µM | > 100 µM | > 100 µM |  | > 100 µM | > 100 µM | > 100 µM | > 100 µM | > 100 µM |  |  |  |  |  |  |  |  |  |  | 
19 | N=C(N)SCCc1cn2ccccc2n1 | > 100 µM | > 100 µM | > 100 µM |  | > 100 µM | > 100 µM | > 100 µM | > 100 µM |  |  |  |  |  |  |  |  |  |  |  | 
20 | O=C(OCCOCBr)c1ccccc1 | > 100 µM | > 100 µM | > 100 µM | > 100 µM | > 100 µM | > 100 µM | > 100 µM | > 100 µM | > 100 µM |  |  |  |  |  |  |  |  |  |  | 
21 | Nc1ccc(Nc2nc(F)nc(-c3c4ccccc4c4n3CCS4)n2)cc1 | 32 µM | 23.6 µM | 48.2 µM | 29.9 µM | 37.1 µM | 27.6 µM | 25.8 µM | 31 µM | 30.5 µM |  |  |  |  |  |  |  |  |  |  | 
22 | COc1ccc(O)c(C(=O)c2ccc(C(=O)O[C@@H]3CCCNC[C@H]3NC(=O)c3ccncc3)cc2)c1F | > 25 µM | > 25 µM |  | > 25 µM | > 25 µM | 0.779 µM | 3.15 µM | > 7.51 µM |  | 0.403 µM | 0.543 µM |  |  | 0.275 µM | 0.753 µM | 0.0852 µM | 0.541 µM | 0.0788 µM | > 25 µM | 0.493 µM
